According to US7425579B2, “Methods for inhibiting activity of polyamine transporters” (Universite Laval, priority 1998, dated 2008):

What was measured:
mice = test: Acute and subacute oral toxicity of BNSD-X by gavage; assay type: in vivo
Procedure: To assess the relative toxicity of BNSD-X, the drug was administered as a 1% (w/v) solution in the drinking water to CD-1 mice with ad libitum access for 14 d. Mice were weighed every other day during the experiment. At the end of the experiment, mice were sacrificed, and organs (kidneys, liver, and spleen) were immediately weighed. Organs were then saved in 10% formalin for morphological examination by an in-house pathologist at the CHUL Research Center (Quebec City, Canada). Acute and subacute oral toxicity of BNSD-X was also separately determined by administering the drug by gavage (0-5 g/kg body weight).
Orally administered polyamines (at ≧0.6 g/kg/day) can have deleterious neurological effects and induce lesions on internal organs (Til et al. (1997) Food Chem Toxicol. 35:337-348.). In order to assess the acute and subacute toxicity of BNSD-X as an orally delivered hexaamine, the effects of gavage with solid BNSD-X pellets was first examined in mice.

[1] = Plasma level of BNSD-X after gavage; assay type: in vivo, mice; settings: solid BNSD-X, 1 g/kg body weight by gavage
CHO-TOR cells = test: Potentiation of DFMO-induced cytostasis in CHO-TOR cells; assay type: cell-based, Chinese hamster; settings: 2 mM DFMO; 4 d
Procedure: FIGS. 9A and 9B are graphs showing that potentiation of DFMO-induced cytostasis by a compound used in a method according to a preferred embodiment of the invention requires a functional polyamine transport system. In particular, CHO-TOR cells (A) and their polyamine transport-deficient mutant subline CHO-MG (B) were grown in medium containing 1 mM aminoguanidine and the indicated concentration of spermidine, in the presence of 2 mM DFMO (●), BNSD-X (□), DFMO+BNSD-X (▪), or vehicle only (∘). Cells were harvested after 4 d for determination of total DNA/well. Data are presented as the mean±SD for triplicate cultures from one representative experiment;
To determine the ability of polyamine transport antagonists to potentiate DFMO-induced inhibition of cell proliferation in the presence of exogenous polyamines, cells were grown for the indicated period in growth medium supplemented with 1 mM aminoguanidine, and either DFMO (1 to 5 mM), the indicated transport inhibitor (50 or 100 μM), or the combination thereof, as well as increasing concentrations of spermidine (0.1 to 300 μM). Fresh medium was added every other day, and cell mass was determined at various time points during the period of exponential growth, or at the end of the experimental period. […]

T-47D cells = test: Reversal of DFMO-induced cytostasis by exogenous spermidine in T-47D cells; assay type: cell-based, human; settings: 50 μM BNSD-X (167-fold excess over 0.3 μM spermidine); 2 mM DFMO
Procedure: FIGS. 6A, 6B, 6C and 6D are graph showing that antagonism of DFMO-induced cytostasis by exogenous spermidine depends on the polyamine and linker structure of the compounds used in a method according to a preferred embodiment of the invention. In particular, T-47D cells were grown for 8-9 d with the indicated concentrations of spermidine in medium containing 1 mM aminoguanidine, in the presence of DFMO (●), transport inhibitor (□), DFMO plus transport inhibitor (▪), or in the absence of either agent (∘), and total DNA content per culture was then determined. Panels A, B, C, and D describe the effect of BNSD-X, BSD-X, BNSD-3 and BSD-3, respectively. Data are presented as the mean±SD for triplicate cultures from one out of at least two identical experiments;
(§1) FIGS. 8A and 8B are graphs representing the time course of the effect of a compound used in a method according to a preferred embodiment of the invention on rescue of DFMO-induced cytostasis by exogenous spermidine. In particular, at time zero, T-47D (panel A) or CHO-K1 (panel B) were seeded at 1×10^4 or 5×10^3 cells/well, respectively, in medium containing 1 mM aminoguanidine, plus either 0.3 μM spermidine (Spd, ●), 2 mM DFMO (□), Spd+DFMO (▪), 50 μM (A) or 100 μM (B) BNSD-X (Δ), BNSD-X+Spd (▴), BNSD-X+DFMO (□), BNSD-X+Spd+DFMO (▾), or vehicle only (∘). At the indicated time, total DNA content/well was determined. Data are presented as the mean±SD for triplicate cultures from one representative experiment;
(§2) To determine the ability of polyamine transport antagonists to potentiate DFMO-induced inhibition of cell proliferation in the presence of exogenous polyamines, cells were grown for the indicated period in growth medium supplemented with 1 mM aminoguanidine, and either DFMO (1 to 5 mM), the indicated transport inhibitor (50 or 100 μM), or the combination thereof, as well as increasing concentrations of spermidine (0.1 to 300 μM). Fresh medium was added every other day, and cell mass was determined at various time points during the period of exponential growth, or at the end of the experimental period. For the latter experiments, the FBS supplement was replaced with dextran-coated charcoal-treated FBS (5%, v/v) plus 0.5 μg/ml insulin in the case of T-47D, ZR-75-1 and MCF-7 cells (U.S. Pat. No. 6,083,496).

[2] = test system: mammalian polyamine carrier; test: Determination of polyamine uptake activity: inhibition of diamine and polyamine transport in T-47D cells; assay type: cell-based, human; settings: T-47D breast cancer cells; mean±SD; read-out: Ki, inhibition of [3H]putrescine uptake
Procedure: The rate of diamine and polyamine transport was determined in T-47D and ZR-75-1 cells incubated in serum-free RPMI 1640 medium as previously described (U.S. Pat. No. 6,083,496; Covassin et al. (1999) Bioorg. Med. Chem. Lett. 9, 1709-1714), using 20 μM [^3H]putrescine (179 Ci/mol), 5 μM [^3H]spermidine (246 Ci/mol) and 3 μM [^14C]spermine (300-400 mCi/mol) respectively, as substrates for a 20-min assay period. Uptake activity was expressed per amount of DNA as fluorometrically determined using 3,5-diaminobenzoic acid (Simard et al. (1990) Endocrinology 126, 3223-3231). Kinetic parameters of polyamine transport inhibition for the transport antagonists were determined by Lineweaver-Burke analysis of uptake activity in the presence of 0.1 μM [^3H]putrescine, 0.03 μM [^3H]spermidine, and 0.01 μM [^14C]spermine plus increasing concentrations of nonradioactive substrate. For competitive inhibitors, Ki values were estimated by iterative curve fitting for sigmoidal equations describing transport rates in the presence of increasing concentrations of antagonist, using the Cheng-Prusoff equation for competitive inhibition (U.S. Pat. No. 6,083,496).
The ability of BSD and BNSD compounds to inhibit uptake of the main natural substrates of the mammalian polyamine carrier, namely putrescine, spermidine and spermine, was evaluated using T-47D human breast cancer cells (Table 1).
Data are presented as the mean±SD of at least two independent determinations of IC50 values, each based on triplicate determinations of uptake velocity at increasing inhibitor concentrations.
The potency of the polyamines and their xylylated dimers as competitive inhibitors of spermidine transport was evaluated in the T-47D human breast cancer cell line (Table 2).

CHO-K1 cells = test: Reversal of DFMO-induced cytostasis by exogenous spermidine in CHO-K1 cells; assay type: cell-based, Chinese hamster
Procedure: as §1, §2

SMILES: NCCCN(CCCN)Cc1ccc(CN(CCCN)CCCN)cc1 [28a, N,N,N′,N′-tetrakis-(3-aminopropyl)-p-diaminoxylene]
- adverse effect on animal behavior, body weight, body features and gross anatomy of kidneys, liver or spleen (mice; gavage, up to 5.0 g/kg body weight): No external sign of sign of adverse effect
- LD50 (mice; oral gavage with solid BNSD-X pellets): > 5 g/body weight
- plasma half-life [1]: > 6 h
- plasma concentration after gavage ([1]; after 1 h, n=5): 450 ± 71 nM
- potentiation of DFMO-induced cytostasis in the absence of exogenous spermidine, CHO-TOR (CHO-TOR cells): observed in the parental cell line
- effect on growth inhibition by DFMO, T-47D (T-47D cells): did not markedly increase the extent of growth inhibition observed with DFMO alone
- Ki [2]: 160 ± 30 nM
- effect on the antiproliferative action of DFMO in the nominal absence of exogenous polyamines, CHO-K1 (CHO-K1 cells; 100 μM BNSD-X, 2 mM DFMO): strongly potentiated the antiproliferative effect of DFMO
- effect on spermidine-mediated reversal of DFMO-induced growth inhibition, CHO-K1 (CHO-K1 cells; DFMO-treated CHO-K1 cells with extracellular spermidine, data not shown): afforded increased resistance to exogenous spermidine
